Source: patent US12383537B2, “(3S)-and (3R)-6,7-bis(hydroxymethyl)-1H,3H-pyrrolo[1,2-c]thiazoles as P53 activators” (UNIVERSIDADE DE COIMBRA, priority 2018, dated 2025)

Assays:
HCT116 cells [1] = test: apoptosis by flow cytometry (FITC-Annexin V and PI); assay type: cell-based, human; conditions: 1 μM and 2.5 μM, 48 hours or 72 hours
Procedure: (§1) FIG. 5 illustrates the effect of 1 μM and 2.5 μM MANIO on cell cycle progression (A) and apoptosis (B) in HCT116 p53+/+ and HCT116 p53−/− cells. (A) Cell cycle phases were analysed by flow cytometry using propidium iodide (PI) and quantified using the FlowJo software, after 48 hours MANIO treatment. […] (B) Apoptosis was analysed by flow cytometry using FITC-Annexin V and PI, after 48 hours or 72 hours MANIO treatment.

HCT116 p53+/+ cells [2] = test: Comet assay (genotoxicity); assay type: cell-based, human; conditions: MANIO 1 and 2.5 μM; etoposide 50 μM
Text: Scale bar=20 μm; Magnification=200×.
For that purpose, the Comet assay was used, which measures the ability of genotoxic agents to induce DNA strand breaks in eukaryotic cells.

[3] = system: wild-type p53-expressing cancer cells (colon HCT116 p53+/+, breast MCF7, and lung H460 cells); test: growth inhibition (SRB) in panel of wild-type p53 cancer cell lines; assay type: cell-based; conditions: Homo sapiens, range over HCT116 p53+/+, 48 hours, read-out: IC50 (concentration of compound that causes 50% growth inhibition)
Procedure: (§2) FIG. 2 illustrates the growth inhibitory effect of MANIO in a panel of human cancer cell lines (HCT116 p53+/+, MCF7, H460, MDA-MB-468, HT-29, SW837, Huh-7, HCT116 p53−/−, H1299, HCC1937). IC50 values were determined by the sulforhodamine B assay after 48 hours treatment with MANIO. Data are mean±SEM (n=4-5).
(§3) The compound (3S)-6,7-bis(hydroxymethyl)-1H,3H-pyrrolo[1,2-c]thiazole, MANIO, inhibited the growth of tumor cells expressing wild-type and mutant p53 forms, with much lower anti-proliferative effect on p53-null cancer cells: The activity of the compound (FIG. 1, with R^1═H, R^2=Ph and R^3=Me) was tested in an array of cancer cell lines with different p53 status.

[4] = system: p53 in HCT116 p53+/+ cells; test: Western blot and RT-qPCR of p53 and p53 target genes; assay type: cell-based, human
Procedure: FIG. 6 illustrates the MANIO effect on protein levels of p53 (A), the mRNA (B) and protein (C) expression levels of p53 target genes and PARP cleavage, in HCT116 p53+/+ and HCT116 p53−/− cells. (B) mRNA levels of p53 target genes in HCT116 cells (MDM2, CDKN1A, GADD45A, BAX, TNFRSF10B, PUMA, NOXA), after 48 hours treatment with MANIO, or DMSO, determined by RT-qPCR. Fold of induction is relative to DMSO. […] Immunoblots represent one of three independent experiments. GAPDH was used as a loading control.

[5] = system: skin cancer cell lines (A375, SCC4925, A375C5 cells); test: anti-proliferative effect in skin cancer cell lines; assay type: cell-based; conditions: range over A375, SCC4925, A375C5 cells
HCT116 cells [6] = test: cell cycle analysis by flow cytometry (propidium iodide); assay type: cell-based, human; conditions: 1 μM and 2.5 μM, 48 hours
Procedure: as §1

[7] = system: MCF7 breast cancer cell lines; conditions: cited from earlier work
[8] = system: HCT116 p53+/+ and HCT116 p53−/− cells; test: colony formation assay; assay type: cell-based, human; conditions: 14 days of treatment
Text: FIG. 4 illustrates the effect of MANIO on HCT116 p53+/+ (A) and HCT116 p53−/− (B) cell colony formation after 14 days of treatment.
MANIO had p53-dependent anti-proliferative effect in colon carcinoma cells: The activity of the compound as wild-type p53 activator was studied in colon carcinoma cells with (HCT116 p53+/+) and without (HCT116 p53−/−) p53 (FIG. 3; Table 1). The IC50 value of MANIO in HCT116 p53+/+ cells was about […] lower than that obtained in HCT116 p53−/− cells, indicating a p53-dependent anti-proliferative effect.

[9] = system: p53-null cancer cells (colon HCT116 p53−/−, breast H1299 and HCC1937 cells); test: growth inhibition (SRB) in panel of p53-null cancer cell lines; assay type: cell-based; conditions: Homo sapiens, range over HCT116 p53−/−, 48 hours, read-out: IC50 (concentration of compound that causes 50% growth inhibition)
Procedure: as §2, §3

[10] = system: mutant p53 forms ectopically expressed in p53-null H1299 cells; test: growth inhibition (SRB) in mutant p53-transfected H1299 cells; assay type: cell-based, human; conditions: R282W, R248W, R280K, R273H, R273C, G245D, R175H, R248Q; 48 hours; versus empty vector
Procedure: FIG. 7 illustrates the growth inhibitory effect of MANIO in mutant p53-transfected H1299 cells. H1299 cells were transfected with pcDNA3 plasmid expressing different p53 mutants (R282W, R248W, R280K, R273H, R273C, G245D, R175H, R248Q, Y220C, G245S), or with the empty pcDNA3 plasmid, using ScreenFect®A. The growth inhibitory effect was evaluated by sulforhodamine B assay after 48 hours treatment with MANIO.

HCT116 p53+/+ cells [11] = test: wound healing assay (cell migration); assay type: cell-based, human; conditions: 0.2 and 0.375 μM
Procedure: FIG. 9 illustrates the prevention of HCT116p53+/+ cell migration by MANIO. Confluent cells were treated with 0.20 and 0.375 μM MANIO or DMSO, and observed at different time-points in the wound healing assay (scale bar=50 μm and magnification=100×).
MANIO prevented cell migration of human colon cancer cells: The effect of MANIO on the migration ability of HCT116 p53+/+ cells was also studied.

HCT116 p53+/+ = test: sulforhodamine B (SRB) growth inhibition assay; assay type: cell-based, human; conditions: for IC50: HCT116 p53+/+, 48 hours incubation, SRB assay; for p53-dependence of anti-proliferative effect: comparison of IC50 in HCT116 p53+/+ and HCT116 p53−/−
Procedure: (§4) Cancer cells were plated at 5.0×10^3 cells/well in 96-well plates and incubated for 24 hours. Cells were then exposed to serial dilutions of MANIO, CP-31398 or PRIMA-1MET (from 0.3 to 80 μM). The effect of the compounds was analyzed following 48 hours incubation, using the sulforhodamine B (SRB) assay. The solvent DMSO corresponding to the maximum concentration used in these assays (0.025%) was included as control. Results are the mean±S.E.M. of 3-5 independent experiments.
as §4, with “plated” for “plated at 5.0×10^3 cells/well”, “compound” for “MANIO, CP-31398 or PRIMA-1MET”, “compound” for “compounds”

HCT116 p53−/− = test: sulforhodamine B (SRB) growth inhibition assay; assay type: cell-based, human
Procedure: as §4
as §4, with “plated” for “plated at 5.0×10^3 cells/well”, “compound” for “MANIO, CP-31398 or PRIMA-1MET”, “compound” for “compounds”

[12] = system: mutant p53-expressing cancer cells (breast MDA-MB-468, rectum SW837, colon HT29, and hepatocarcinoma Huh-7 cells); test: growth inhibition (SRB) in panel of mutant p53 cancer cell lines; assay type: cell-based; conditions: Homo sapiens, range over MDA-MB-468, SW837, HT29, Huh-7, 48 hours, read-out: IC50 (concentration of compound that causes 50% growth inhibition)
Procedure: as §2, §3

HCT116 p53+/+ tumors = test: in vivo xenograft mouse model; design: species or system Swiss nude mice; conditions: versus vehicle
Procedure: FIG. 10 illustrates the in vivo antitumor activity of MANIO. (A) Swiss nude mice were implanted subcutaneous with xenografts of 1.5×10^6 HCT116 p53+/+ cells. The treatment was initiated when palpable tumors were established (˜100 mm3) and consisted in 4 intraperitoneal injections (2 times per week) of vehicle (control) or 100 mg/kg of MANIO (n=5 for each group). […] (B) The tumor weight after MANIO or vehicle (control) treatment was measured; data are mean±SEM (*p<0.05; unpaired Student's t-test). […] This description is of course not in any way restricted to the forms of implementation presented herein and any person with an average knowledge of the area can provide many possibilities for modification thereof without departing from the general idea as defined by the claims. The preferred forms of implementation described above can obviously be combined with each other. The following claims further define the preferred forms of implementation.

Huh-7 (mutp53 Y220C) = test: sulforhodamine B (SRB) growth inhibition assay; assay type: cell-based; conditions: Homo sapiens, Huh-7, 48 hours incubation
Procedure: as §4, with “plated” for “plated at 5.0×10^3 cells/well”, “compound” for “MANIO, CP-31398 or PRIMA-1MET”, “compound” for “compounds”

H1299 (p53-null) = test: sulforhodamine B (SRB) growth inhibition assay; assay type: cell-based; conditions: Homo sapiens, NCI-H1299, H1299, 48 hours incubation
Procedure: as §4, with “plated” for “plated at 5.0×10^3 cells/well”, “compound” for “MANIO, CP-31398 or PRIMA-1MET”, “compound” for “compounds”

HepG2 (wtp53) = test: sulforhodamine B (SRB) growth inhibition assay; assay type: cell-based; conditions: Homo sapiens, HepG2, 48 hours incubation
Procedure: as §4, with “plated” for “plated at 5.0×10^3 cells/well”, “compound” for “MANIO, CP-31398 or PRIMA-1MET”, “compound” for “compounds”

HT-29 (mutp53 R273H) = test: sulforhodamine B (SRB) growth inhibition assay; assay type: cell-based; conditions: Homo sapiens, HT-29, 48 hours incubation
Procedure: as §4, with “plated” for “plated at 5.0×10^3 cells/well”, “compound” for “MANIO, CP-31398 or PRIMA-1MET”, “compound” for “compounds”

H460 (wtp53) = test: sulforhodamine B (SRB) growth inhibition assay; assay type: cell-based; conditions: Homo sapiens, NCI-H460, H460, 48 hours incubation
Procedure: as §4, with “plated” for “plated at 5.0×10^3 cells/well”, “compound” for “MANIO, CP-31398 or PRIMA-1MET”, “compound” for “compounds”

SW837 (mutp53 R248W) = test: sulforhodamine B (SRB) growth inhibition assay; assay type: cell-based; conditions: Homo sapiens, SW837, 48 hours incubation
Procedure: as §4, with “plated” for “plated at 5.0×10^3 cells/well”, “compound” for “MANIO, CP-31398 or PRIMA-1MET”, “compound” for “compounds”

[13] = system: MDA-MB-468 (mut p53 R273H); test: sulforhodamine B (SRB) growth inhibition assay; assay type: cell-based; conditions: Homo sapiens, MDA-MB-468, 48 hours incubation
Procedure: as §4, with “plated” for “plated at 5.0×10^3 cells/well”, “compound” for “MANIO, CP-31398 or PRIMA-1MET”, “compound” for “compounds”

[14] = Homo sapiens, HCT-116, 48 hours incubation

SMILES: Cc1c(CO)c(CO)c2n1[C@H](c1ccccc1)SC2 [MANIO, (3S)-6,7-Bis(hydroxymethyl)-5-methyl-3-phenyl-1H,3H-pyrrolo[1,2-c]thiazole]
- apoptosis (HCT116 cells [1]): apoptotic cell death
- percentage of tail DNA (DNA damage) (HCT116 p53+/+ cells [2]): did not significantly increase the percentage of tail DNA
- IC50 [3]: 0.2 to 0.96 µM
- mRNA and proteins encoded by p53 target genes ([4]; 1 μM): increased
- p53 protein levels ([4]; 1 μM, 24, 48 and 72 hours): increased the p53 protein levels
- IC50 [5]: 25 to 35 µM
- cell cycle progression (HCT116 cells [6]): induction of a G2/M-phase cell arrest
- anti-proliferative activity [7]: potent anti-proliferative activity
- colony-forming ability [8]: reduce the colony-forming ability of HCT116 in a p53-dependent manner
- IC50 [9]: 28.5 to 48.2 µM
- growth inhibition of cells transfected with p53 mutants [10]: significant growth inhibition
- wound closure (HCT116 p53+/+ cells [11]): significantly reduced the wound closure
- IC50 in HCT116 p53+/+ cells lower than in HCT116 p53−/− cells (HCT116 p53+/+; HCT116 p53+/+ versus HCT116 p53−/−): about 50 fold
- IC50 (HCT116 p53+/+; Homo sapiens, HCT-116): 0.96 ± 0.04 µM
- IC50 (HCT116 p53−/−; [14]): 48.2 ± 1.97 µM
- IC50 [12]: 0.2 to 3.2 µM
- mice weight during treatment (HCT116 p53+/+ tumors; 100 mg/kg intraperitoneal, 2 times per week): no significant differences between control and MANIO-treated mice weight
- growth of the HCT116 p53+/+ tumors (HCT116 p53+/+ tumors; four intraperitoneal administrations of 100 mg/kg): significantly inhibited

SMILES: COc1ccc(/C=C/c2nc(NCCCN(C)C)c3ccccc3n2)cc1 [CP-31398, reference compound]
- IC50 (HCT116 p53+/+): 3.4 ± 0.1 µM
- p53-dependence of anti-proliferative effect (HCT116 p53+/+): lower p53-dependence than the compound
- IC50 (HCT116 p53−/−; 48 hours incubation): 7.3 ± 0.6 µM

SMILES: COCC1(CO)C(=O)C2CCN1CC2 (stereo not drawn) [PRIMA-1^MET, reference compound]
- IC50 (HCT116 p53+/+): 19.9 ± 4 µM
- p53-dependence of anti-proliferative effect (HCT116 p53+/+): lower p53-dependence than the compound
- IC50 (HCT116 p53−/−; 48 hours incubation): 13.1 ± 2 µM

SMILES: Cc1c(CO)c(CO)c2n1[C@@H](c1ccccc1)SC2 [(3R)-6,7-Bis (hydroxymethyl)-5-methyl-3-phenyl-1H,3H-pyrrolo[1,2-c]thiazole]
- IC50 [5]: 25 to 35 µM
- anti-proliferative activity [7]: potent anti-proliferative activity
- IC50 (Huh-7 (mutp53 Y220C)): 6.43 ± 0.32 µM
- IC50 (H1299 (p53-null)): 25.5 ± 2.38 µM
- IC50 (HepG2 (wtp53)): 50.3 ± 1.63 µM
- IC50 (HT-29 (mutp53 R273H)): 5.88 ± 1.28 µM
- IC50 (H460 (wtp53)): 1.8 ± 0.089 µM
- IC50 (SW837 (mutp53 R248W)): 7.35 ± 0.89 µM
- IC50 [13]: 0.91 ± 0.0095 µM
- IC50 (HCT116 p53+/+; Homo sapiens, HCT-116): 5.11 ± 0.42 µM
- p53-dependence of anti-proliferative effect (HCT116 p53+/+): relevant p53-dependent anti-proliferative activity
- IC50 (HCT116 p53−/−; [14]): 51.8 ± 2.73 µM
